From US8008291B2 (Mimetica Pty Ltd, priority 2008, dated 2011) come the findings set out here.

T1 sequence (P33032 whole entry): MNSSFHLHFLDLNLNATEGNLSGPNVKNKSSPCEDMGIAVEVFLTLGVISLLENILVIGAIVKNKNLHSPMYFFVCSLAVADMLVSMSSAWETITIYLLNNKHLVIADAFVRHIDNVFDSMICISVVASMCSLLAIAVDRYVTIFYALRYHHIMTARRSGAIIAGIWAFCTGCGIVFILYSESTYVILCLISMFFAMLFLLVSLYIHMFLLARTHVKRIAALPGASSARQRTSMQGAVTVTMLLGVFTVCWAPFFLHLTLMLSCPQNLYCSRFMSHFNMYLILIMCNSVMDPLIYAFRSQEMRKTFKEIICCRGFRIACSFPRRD

The assay has as its target T1, human MC5R (hMC5R) (Homo sapiens, UniProt P33032).
T1 construct: purchased Perkin Elmer RBXMC5M400UA
The assay is described as follows: Human MC5R radioligand binding assay (membranes, [125I] NDP-MSH displacement). Conditions: hMC5R binding; tested as trifluoroacetate or hydrochloride salts, or free bases; read-out: MC5R radioligand IC50. Summed up:
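Frozen human MC5R membranes incubated with test compound and in-house iodogen-labeled, HPLC-purified [125I]NDP-MSH for 1 hr at 37° C. Binding measured as displacement of the radioligand.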
Usually IC50 stands for the concentration at which inhibition is half-maximal. On to `CC[C@H](CN1CC[C@@H](CNC(=O)/C=C/c2ccc(Cl)cc2)N[C@@H](CCN2CCCCC2)C1=O)c1ccccc1` [Compound 365, (E)-3-(4-chlorophenyl)-N-(((3S,5S)-2-oxo-1-((S)-2-phenylbutyl)-3-(2-(piperidin-1-yl)ethyl)-1,4-diazepan-5-yl)methyl)acrylamide], for which the concentration for half-maximal inhibition (IC50) was below 10 nM. The figure for `NCC[C@@H]1N[C@H](CNC(=O)c2ccc3cc(Cl)ccc3c2)CCN(CC(c2ccccc2)c2ccccc2)C1=O` [Compound 366, N-(((3S,5S)-3-(2-aminoethyl)-1-(2,2-diphenylethyl)-2-oxo-1,4-diazepan-5-yl)methyl)-6-chloro-2-naphthamide] is below 100 nM; for `O=C(NC[C@@H]1CCN(CC(c2ccccc2)c2ccccc2)C(=O)[C@H](CCN2CCCC2)N1)c1ccc2ccccc2c1` [Compound 367, N-(((3S,5S)-1-(2,2-diphenylethyl)-2-oxo-3-(2-(pyrrolidin-1-yl)ethyl)-1,4-diazepan-5-yl)methyl)-2-naphthamide] it is below 100 nM. The figure for `O=C(NC[C@@H]1CCN(CC(c2ccccc2)c2ccccc2)C(=O)[C@H](CCN2CCCCC2)N1)c1ccc2ccccc2c1` [Compound 368, N-(((3S,5S)-1-(2,2-diphenylethyl)-2-oxo-3-(2-(piperidin-1-yl)ethyl)-1,4-diazepan-5-yl)methyl)-2-naphthamide] is below 100 nM; for `CCC(CC)CN1CC[C@@H](CNC(=O)c2ccc3cc(F)ccc3c2)N[C@@H](CCN)C1=O` [Compound 369, N-(((3S,5S)-3-(2-aminoethyl)-1-(2-ethylbutyl)-2-oxo-1,4-diazepan-5-yl)methyl)-6-fluoro-2-naphthamide] it is below 1000 nM.

As to `CCC(CC)CN1CC[C@@H](CNC(=O)c2ccc3cc(Cl)ccc3c2)N[C@@H](CCN)C1=O` [Compound 370, N-(((3S,5S)-3-(2-aminoethyl)-1-(2-ethylbutyl)-2-oxo-1,4-diazepan-5-yl)methyl)-6-chloro-2-naphthamide], the IC50 is below 1000 nM. Turning to `CCC(CC)CN1CC[C@@H](CNC(=O)c2ccc3cc(Br)ccc3c2)N[C@@H](CCN)C1=O` [Compound 371, N-(((3S,5S)-3-(2-aminoethyl)-1-(2-ethylbutyl)-2-oxo-1,4-diazepan-5-yl)methyl)-6-bromo-2-naphthamide], the IC50 is below 1000 nM. To `CCC(CC)CN1CC[C@@H](CNC(=O)c2ccc3cc(F)ccc3c2)N[C@@H](CCN2CCCCC2)C1=O` [Compound 372, N-(((3S,5S)-1-(2-ethylbutyl)-2-oxo-3-(2-(piperidin-1-yl)ethyl)-1,4-diazepan-5-yl)methyl)-6-fluoro-2-naphthamide] belongs below 100 nM.

`CCC(CC)CN1CC[C@@H](CNC(=O)c2ccc3cc(Cl)ccc3c2)N[C@@H](CCN2CCCCC2)C1=O` [Compound 373, 6-chloro-N-(((3S,5S)-1-(2-ethylbutyl)-2-oxo-3-(2-(piperidin-1-yl)ethyl)-1,4-diazepan-5-yl)methyl)-2-naphthamide]: the IC50 was below 100 nM. The figure for `CCC(CC)CN1CC[C@@H](CNC(=O)c2ccc3cc(Br)ccc3c2)N[C@@H](CCN2CCCCC2)C1=O` [Compound 374, 6-bromo-N-(((3S,5S)-1-(2-ethylbutyl)-2-oxo-3-(2-(piperidin-1-yl)ethyl)-1,4-diazepan-5-yl)methyl)-2-naphthamide] is below 100 nM. The figure for `CC1CC(C)CC(CN2CC[C@@H](CNC(=O)c3ccc(Cl)c(Cl)c3)N[C@@H](CCN)C2=O)C1` (stereo partly drawn) [Compound 375, N-(((3S,5S)-3-(2-aminoethyl)-1-((3,5-dimethylcyclohexyl)methyl)-2-oxo-1,4-diazepan-5-yl)methyl)-3,4-dichlorobenzamide] is below 1000 nM; for `CC1CC(C)CC(CN2CC[C@@H](CNC(=O)c3ccc4ccccc4c3)N[C@@H](CCN)C2=O)C1` (stereo partly drawn) [Compound 376, N-(((3S,5S)-3-(2-aminoethyl)-1-((3,5-dimethylcyclohexyl)methyl)-2-oxo-1,4-diazepan-5-yl)methyl)-2-naphthamide] it is below 1000 nM; for `CC1CC(C)CC(CN2CC[C@@H](CNC(=O)/C=C/c3ccc(Cl)cc3)N[C@@H](CCN)C2=O)C1` (stereo partly drawn) [Compound 377, (E)-N-(((3S,5S)-3-(2-aminoethyl)-1-((3,5-dimethylcyclohexyl)methyl)-2-oxo-1,4-diazepan-5-yl)methyl)-3-(4-chlorophenyl)acrylamide] it is below 1000 nM. To `O=C(NC[C@@H]1CCN(CC(c2ccccc2)c2ccccc2)C(=O)[C@H](CCN2CCCCC2)N1)c1ccc2cc(Cl)ccc2c1` [Compound 378, 6-chloro-N-(((3S,5S)-1-(2,2-diphenylethyl)-2-oxo-3-(2-(piperidin-1-yl)ethyl)-1,4-diazepan-5-yl)methyl)-2-naphthamide] belongs below 10 nM; to `O=C(NC[C@@H]1CCN(CC(c2ccccc2)c2ccccc2)C(=O)[C@H](CCN2CCCCC2)N1)c1ccc2cc(F)ccc2c1` [Compound 379, N-(((3S,5S)-1-(2,2-diphenylethyl)-2-oxo-3-(2-(piperidin-1-yl)ethyl)-1,4-diazepan-5-yl)methyl)-6-fluoro-2-naphthamide], below 10 nM; to `O=C(/C=C/c1ccc(Cl)cc1)NC[C@@H]1CCN(CC(c2ccccc2)c2ccccc2)C(=O)[C@H](CCN2CCCC2)N1` [Compound 380, (E)-3-(4-chlorophenyl)-N-(((3S,5S)-1-(2,2-diphenylethyl)-2-oxo-3-(2-(pyrrolidin-1-yl)ethyl)-1,4-diazepan-5-yl)methyl)acrylamide], below 100 nM.

As to `CC(C)NCC[C@@H]1N[C@H](CNC(=O)/C=C/c2ccc(Cl)cc2)CCN(CC(c2ccccc2)c2ccccc2)C1=O` [Compound 381, (E)-3-(4-chlorophenyl)-N-(((3S,5S)-1-(2,2-diphenylethyl)-3-(2-(isopropylamino)ethyl)-2-oxo-1,4-diazepan-5-yl)methyl)acrylamide], the IC50 is below 100 nM. To `CC(C)NCC[C@@H]1N[C@H](CNC(=O)c2ccc3ccccc3c2)CCN(CC(c2ccccc2)c2ccccc2)C1=O` [Compound 382, N-(((3S,5S)-1-(2,2-diphenylethyl)-3-(2-(isopropylamino)ethyl)-2-oxo-1,4-diazepan-5-yl)methyl)-2-naphthamide] belongs below 1000 nM; to `CC(C)NCC[C@@H]1N[C@H](CNC(=O)c2ccc(Cl)c(Cl)c2)CCN(CC(c2ccccc2)c2ccccc2)C1=O` [Compound 383, 3,4-dichloro-N-(((3S,5S)-1-(2,2-diphenylethyl)-3-(2-(isopropylamino)ethyl)-2-oxo-1,4-diazepan-5-yl)methyl)benzamide], below 1000 nM; to `CC1CCCC(C)C1CN1CC[C@@H](CNC(=O)c2ccc3ccccc3c2)N[C@@H](CCCN)C1=O` (stereo partly drawn) [Compound 384, N-(((3S,5S)-3-(3-aminopropyl)-1-((2,6-dimethylcyclohexyl)methyl)-2-oxo-1,4-diazepan-5-yl)methyl)-2-naphthamide], below 10000 nM.

For `CC[C@H](CN1CC[C@@H](CNC(=O)c2ccc3ccccc3c2)N[C@@H](CCCN)C1=O)c1ccccc1` [Compound 385, N-(((3S,5S)-3-(3-aminopropyl)-2-oxo-1-((S)-2-phenylbutyl)-1,4-diazepan-5-yl)methyl)-2-naphthamide], the IC50 was below 1000 nM. To `CC1CC(C)CC(CN2CC[C@@H](CNC(=O)c3ccc(Cl)c(Cl)c3)N[C@@H](CCN3CCCCC3)C2=O)C1` (stereo partly drawn) [Compound 386, 3,4-dichloro-N-(((3S,5S)-1-((3,5-dimethylcyclohexyl)methyl)-2-oxo-3-(2-(piperidin-1-yl)ethyl)-1,4-diazepan-5-yl)methyl)benzamide] belongs below 100 nM.

As for `CC1CC(C)CC(CN2CC[C@@H](CNC(=O)c3ccc(Cl)c(Cl)c3)N[C@@H](CCNC(C)C)C2=O)C1` (stereo partly drawn) [Compound 387, 3,4-dichloro-N-(((3S,5S)-1-((3,5-dimethylcyclohexyl)methyl)-3-(2-(isopropylamino)ethyl)-2-oxo-1,4-diazepan-5-yl)methyl)benzamide], the IC50 was below 1000 nM. With `CC(C)C(CN1CC[C@@H](CNC(=O)c2ccc3ccccc3c2)N[C@@H](CCN)C1=O)c1ccccc1` (stereo partly drawn) [Compound 388, N-(((3S,5S)-3-(2-aminoethyl)-1-(3-methyl-2-phenylbutyl)-2-oxo-1,4-diazepan-5-yl)methyl)-2-naphthamide], the IC50 was below 10000 nM.

Regarding `CC[C@H](CN1CC[C@@H](CNC(=O)c2ccc3ccccc3c2)N[C@@H](CCN)C1=O)c1ccccc1` [Compound 389, N-(((3S,5S)-3-(2-aminoethyl)-2-oxo-1-((S)-2-phenylbutyl)-1,4-diazepan-5-yl)methyl)-2-naphthamide], the IC50 is below 1000 nM.

Take `CC[C@@H](CN1CC[C@@H](CNC(=O)c2ccc3ccccc3c2)N[C@@H](CCCN)C1=O)c1ccccc1` [Compound 390, N-(((3S,5S)-3-(3-aminopropyl)-2-oxo-1-((R)-2-phenylbutyl)-1,4-diazepan-5-yl)methyl)-2-naphthamide]: the IC50 was below 10000 nM. The figure for `O=C(CCc1ccc(Cl)cc1)NC[C@@H]1CCN(CC(c2ccccc2)c2ccccc2)C(=O)[C@H](CCN2CCCCC2)N1` [Compound 391, 3-(4-chlorophenyl)-N-(((3S,5S)-1-(2,2-diphenylethyl)-2-oxo-3-(2-(piperidin-1-yl)ethyl)-1,4-diazepan-5-yl)methyl)propanamide] is below 100 nM; for `NCC[C@@H]1N[C@H](CNC(=O)CCc2ccc(Cl)cc2)CCN(CC(c2ccccc2)c2ccccc2)C1=O` [Compound 392, N-(((3S,5S)-3-(2-aminoethyl)-1-(2,2-diphenylethyl)-2-oxo-1,4-diazepan-5-yl)methyl)-3-(4-chlorophenyl)propanamide] it is below 10000 nM. The figure for `O=C(/C=C/c1ccc(Cl)cc1)NC[C@@H]1CCN(CC(c2ccccc2)c2ccccc2)C(=O)[C@H](CNC(=O)c2ccccn2)N1` [Compound 393, N-(((2S,7S)-7-(((E)-3-(4-chlorophenyl)acrylamido)methyl)-4-(2,2-diphenylethyl)-3-oxo-1,4-diazepan-2-yl)methyl)picolinamide] is below 10000 nM.
